Source: patent publication US10265278B2, “Pharmaceutical compositions and methods utilizing a D-amino acid” (priority 2008, dated 2019)
Read-outs that look alike come from different tables or passages of the source.

Columns and labels:
[1] = tested on: rat kidney; settings: cited from earlier work; for Effect on nephrotoxic effects of orally administered DL-serine: DL-serine 100 mg oral, test compound subcutaneous or intramuscular, rats (Wachstein); for Protective effect against D-serine nephrotoxicity: compound injected prior to D-serine (Kaltenbach et al 1982)
[2] = tested on: rat kidney; settings: cited from earlier work
[3] = tested on: Sprague Dawley rats; test: Creatanine levels in rats during oral D-serine treatment with or without glutathione precursors; type: in vivo
Method: (§1) Rats were divided into 5 separate groups of four male and four female animals each.
(§2) In addition, a control group received only standard diet. […] Effects of various doses were investigated in a sequential manner starting with 50 mg/kg. Dose level was doubled every three days up to four doses (50 mg, 100 mg, 200 mg & 400 mg).
(§3) Nephrotoxicity was assessed in two ways: first, by creatanine levels and second by histophathology at necropsy.

[4] = tested on: Sprague Dawley rats; test: Histopathological examination of kidney at necropsy (tubular nephrosis grade); type: in vivo; settings: histopathology at necropsy; oral gavage up to 400 mg/kg
Method: as §1, §2, §3

[5] = tested on: rat kidney; settings: rats (Dickey et al 2007), cited from earlier work
[6] = oral NAC vs. hydration alone; cited from earlier work

CC(N)C(=O)O (racemic) [DL-alpha-alanine]
Effect on nephrotoxic effects of orally administered DL-serine [1]: relatively ineffective

CC(N)(CO)C(=O)O (racemic) [DL-alpha-methylserine]
Protective effect against D-serine nephrotoxicity [1]: significant protective effects

CSCCC(N)C(=O)O (racemic) [DL-methionine]
Effect on nephrotoxic effects of orally administered DL-serine [1]: blocked

NC(CO)C(=O)O (racemic) [DL-serine]
Renal injury induced ([2]; 100 mg DL-serine, rats, stock diet or diet deficient in B vitamins): acute renal necrosis

C[C@@H](O)[C@H](N)C(=O)O (racemic) [DL-threonine]
Effect on nephrotoxic effects of orally administered DL-serine [1]: partial or full prevention of toxicity

CC(C)C(N)C(=O)O (racemic) [DL-valine]
Effect on nephrotoxic effects of orally administered DL-serine [1]: relatively ineffective

CC(C)C(O)C(N)C(=O)O (racemic) [beta-hydroxy-DL-leucine]
Protective effect against D-serine nephrotoxicity [1]: significant protective effects

OCC(S)CS (stereo not shown) [2,3 dithiopropanol]
Effect on nephrotoxic effects of orally administered DL-serine [1]: relatively ineffective

C[C@@H](N)C(=O)O [D-alanine]
Protective effect against D-serine nephrotoxicity [1]: significant protective effects

O=C[C@H](O)[C@@H](O)[C@H](O)[C@H](O)CO [D-glucose]
Effect on nephrotoxic effects of orally administered DL-serine [1]: relatively ineffective

N[C@H](CCO)C(=O)O [D-homoserine]
Protective effect against D-serine nephrotoxicity [1]: significant protective effects

C[C@H](O)[C@@H](N)C(=O)O [D-threonine]
Protective effect against D-serine nephrotoxicity [1]: significant protective effects

N[C@H](CO)C(=O)O [Group A, D-serine]
Increase in creatanine levels during treatment ([3]; post vs. pre, in words): significant increase | Creatanine level, Change mean ([3]; post- minus pre-treatment): 0.12 | Creatanine level, Post-treatment mean ([3]; post-treatment, oral gavage, doses escalated 50, 100, 200, 400 mg/kg): 0.77 | Creatanine level, Pre-treatment Mean ([3]; pre-treatment (baseline), rats, oral gavage): 0.65 | Nephrosis level (mean severity grade of tubular nephrosis) [4]: 1.91 | Nephrotoxicity in rats lacking DAAO ([2]; rats lacking DAAO (Maekawa et al 2005)): not nephrotoxic | Smallest dose consistently producing renal lesions ([2]; rats): 5 mg per 100 g

N=C(N)NCCC[C@H](N)C(=O)O [L-arginine]
Effect on nephrotoxic effects of orally administered DL-serine [1]: relatively ineffective

N[C@@H](Cc1c[nH]cn1)C(=O)O [L-histidine]
Effect on nephrotoxic effects of orally administered DL-serine [1]: relatively ineffective

CC(=O)N[C@@H](CS)C(=O)O [NAC, N-acetylcysteine]
Effect against cisplatin-induced experimental nephrotoxicity ([5]; intravenous NAC): effective | Effect against cisplatin-induced experimental nephrotoxicity ([5]; oral NAC): not found beneficial effects | Blockade of nephrotoxicity due to intravenous contrast [6]: not found benefit over hydration alone

CC(C)(N)C(=O)O [alpha-aminoisobutryic acid]
Protective effect against D-serine nephrotoxicity [1]: significant protective effects

CCCC(=O)O [butyric acid]
Effect on nephrotoxic effects of orally administered DL-serine [1]: relatively ineffective

N[C@@H](CCC(=O)N[C@@H](CS)C(=O)NCC(=O)O)C(=O)O [glutathione]
Effect on nephrotoxic effects of orally administered DL-serine [1]: blocked | Prevention of D-serine toxicity ([1]; intrarenal injection, equimolar with D-serine (Krug et al 2007)): toxicity can be prevented

NCC(=O)O [glycine]
Effect on nephrotoxic effects of orally administered DL-serine [1]: partial or full prevention of toxicity

CC(=O)[O-].[Na+] [sodium acetate]
Effect on nephrotoxic effects of orally administered DL-serine [1]: relatively ineffective

O=C([O-])c1ccccc1.[Na+] [sodium benzoate]
Prevention of D-serine toxicity ([1]; intraperitoneal, large doses (Williams and Lock 2005)): toxicity can be prevented

[Cl-].[Na+] [sodium chloride]
Effect on nephrotoxic effects of orally administered DL-serine [1]: relatively ineffective

CC(O)C(=O)[O-].[Na+] (stereo not shown) [sodium lactate]
Effect on nephrotoxic effects of orally administered DL-serine [1]: partial or full prevention of toxicity

O=C([O-])CS.[Na+] [sodium thioglycollate]
Effect on nephrotoxic effects of orally administered DL-serine [1]: relatively ineffective
